According to patent US11780826B2 (Amgen Inc., priority 2017, dated 2023):

The compounds below were run on Bovine cardiac myofibrils (assay: In vitro model of dose-dependent myofibril ATPase modulation (AC1.4, pyruvate kinase/lactate dehydrogenase-coupled ATPase assay at pCa25)). Conditions: concentration at which ATPase activity was 1.4-fold higher than the bottom of the dose curve, mean of a minimum of two independent tests.
Format: biochemical
Outline: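 Detergent-skinned bovine cardiac myofibrils (typically 0.25-1.0 mg/ml) in Ca-buffered (EGTA/CaCl2) PK/LDH-coupled ATPase assay: 12 mM K-PIPES pH 6.80, 2 mM MgCl2, 1 mM ATP, 1 mM DTT, 0.5 mM NADH, 1.5 mM PEP. Hydrolysis followed at 340 nm; dose response fit to 4-parameter equation; AC1.4 is mean of ≥2 tests.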

Row | Structure (SMILES) | AC1.4
1 | O=C(N[C@@H](c1ccc(C(F)(F)F)cc1F)C1CC1)[C@H]1C[C@H]2C[C@H]2N1C(=O)c1cccc(S(=O)(=O)C2CC2)c1 [Example 211, (1R,3R,5R)-N-((R)-cyclopropyl(2-fluoro-4-(trifluoromethyl)phenyl)methyl)-2-(3-(cyclopropylsulfonyl)benzoyl)-2-azabicyclo[3.1.0]hexane-3-carboxamide] | 0.4488 µM
2 | CCS(=O)(=O)c1cccc(C(=O)N2CCC[C@@H]2C(=O)N[C@@H](c2ccc(C(F)(F)F)cc2F)C2CC2)c1 [Example 212, N-((R)-cyclopropyl(2-fluoro-4-(trifluoromethyl)phenyl)methyl)-1-(3-(ethylsulfonyl)benzoyl)-D-prolinamide] | 0.4557 µM
3 | CC(C)(C)c1cccc(C(=O)N2[C@@H](C(=O)N[C@@H](c3ccc(C(F)(F)F)cc3F)C3COC3)C[C@H]3C[C@H]32)c1 [Example 213, (1R,3R,5R)-N-((R)-(2-fluoro-4-(trifluoromethyl)phenyl)(3-oxetanyl)methyl)-2-(3-(2-methyl-2-propanyl)benzoyl)-2-azabicyclo[3.1.0]hexane-3-carboxamide] | 0.4603 µM
4 | CS(=O)(=O)c1ccc(C(=O)N2CCC[C@@H]2C(=O)N[C@@H](c2cc(F)c(Cl)cc2F)C2CC2)cn1 [Example 215, N-((R)-(4-chloro-2,5-difluorophenyl)(cyclopropyl)methyl)-1-((6-(methylsulfonyl)-3-pyridinyl)carbonyl)-D-prolinamide] | 0.4666 µM
5 | N#CC1CN(S(=O)(=O)N2CCC[C@H](C(=O)N3C[C@H](F)C[C@@H]3C(=O)NCc3ccc(C(F)(F)F)cc3)C2)C1 [Example 216, (4R)-1-(((3S)-1-((3-cyano-1-azetidinyl)sulfonyl)-3-piperidinyl)carbonyl)-4-fluoro-N-(4-(trifluoromethyl)benzyl)-D-prolinamide] | 0.4746 µM
6 | CCNc1ccccc1C(=O)N1[C@@H](C(=O)N[C@@H](c2ccc(C(F)(F)F)cc2F)C2COC2)C[C@H]2C[C@H]21 [Example 217, (1R,3R,5R)-2-(2-(ethylamrno)benzoyl)-N-((R)-(2-fluoro-4-(trifluoromethyl)phenyl)(3-oxetanyl)methyl)-2-azabicyclo[3.1.0]hexane-3-carboxamide] | 0.4751 µM
7 | CS(=O)(=O)c1cc(F)cc(C(=O)N2[C@@H](C(=O)N[C@@H](c3ccc(C(F)(F)F)cc3F)C3COC3)C[C@H]3C[C@H]32)c1 [Example 219, (1R,3R,5R)-2-(3-fluoro-5-(methylsulfonyl)benzoyl)-N-((R)-(2-fluoro-4-(trifluoromethyl)phenyl)(3-oxetanyl)methyl)-2-azabicyclo[3.1.0]hexane-3-carboxamide] | 0.4808 µM
8 | CC(C)[C@H](NC(=O)[C@H]1CCCN1C(=O)c1cccc(S(=O)(=O)N2CC(C#N)C2)c1)c1ccc(C(F)(F)F)cc1F [Example 220, 1-(3-((3-cyano-1-azetidinyl)sulfonyl)benzoyl)-N-((1S)-1-(2-fluoro-4-(trifluoromethyl)phenyl)-2-methylpropyl)-D-prolinamide] | 0.4809 µM
9 | N#CC1CN(S(=O)(=O)N2CCC[C@H](C(=O)N3CCC[C@@H]3C(=O)NCc3ccc(F)c(F)c3)C2)C1 [Example 221, 1-(((3S)-1-((3-cyano-1-azetidinyl)sulfonyl)-3-piperidinyl)carbonyl)-N-(3,4-difluorobenzyl)-D-prolinamide] | 0.4821 µM
10 | CS(=O)(=O)c1ccnc(C(=O)N2CCC[C@@H]2C(=O)N[C@@H](c2cc(F)c(Cl)cc2F)C2CC2)c1 [Example 222, N-((R)-(4-chloro-2,5-difluorophenyl)(cyclopropyl)methyl)-1-((4-(methylsulfonyl)-2-pyridinyl)carbonyl)-D-prolinamide] | 0.4825 µM
11 | O=C(N[C@@H](c1ccc(C(F)(F)F)cc1F)C1CC1)[C@H]1CCCN1C(=O)c1cccc(S(=O)(=O)C2CC2)c1 [Example 223, N-((R)-cyclopropyl(2-fluoro-4-(trifluoromethyl)phenyl)methyl)-1-(3-(cyclopropylsulfonyl)benzoyl)-D-prolinamide] | 0.4842 µM
12 | NS(=O)(=O)c1cccc(C(=O)N2CCC[C@@H]2C(=O)N[C@@H](c2cc(F)c(Cl)cc2F)C2CC2)c1 [Example 224, N-((R)-(4-chloro-2,5-difluorophenyl)(cyclopropyl)methyl)-1-(3-sulfamoylbenzoyl)-D-prolinamide] | 0.485 µM
13 | O=C(N[C@@H](c1cc(F)c(C(F)(F)F)cc1F)C1CC1)[C@H]1C[C@H]2C[C@H]2N1C(=O)c1ccnc(C(F)(F)F)c1 [Example 225, (1R,3R,5R)-N-((R)-cyclopropyl(2,5-difluoro-4-(trifluoromethyl)phenyl)methyl)-2-((2-(trifluoromethyl)-4-pyridinyl)carbonyl)-2-azabicyclo[3.1.0]hexane-3-carboxamide] | 0.4889 µM
14 | O=C(NCc1ccc(C(F)(F)F)cc1)[C@H]1CCCN1C(=O)[C@H]1CCCN(S(=O)(=O)N2CC(c3ccon3)C2)C1 [Example 227, 1-(((3S)-1-((3-(1,2-oxazol-3-yl)-1-azetidinyl)sulfonyl)-3-piperidinyl)carbonyl)-N-(4-(trifluoromethyl)benzyl)-D-prolinamide] | 0.4927 µM
15 | CNc1ccc(S(C)(=O)=O)cc1C(=O)N1CCC[C@@H]1C(=O)N[C@@H](c1ccc(C(F)(F)F)cc1F)C1CC1 [Example 228, N-((R)-cyclopropyl(2-fluoro-4-(trifluoromethyl)phenyl)methyl)-1-(2-(methylamino)-5-(methylsulfonyl)benzoyl)-D-prolinamide] | 0.4974 µM
16 | CC(C)[C@H](NC(=O)[C@H]1CCCN1C(=O)[C@H]1CCCN(S(=O)(=O)N2CC(C#N)C2)C1)c1ccc(C(F)(F)F)cc1F [Example 229, 1-(((3S)-1-((3-cyano-1-azetidinyl)sulfonyl)-3-piperidinyl)carbonyl)-N-((1S)-1-(2-fluoro-4-(trifluoromethyl)phenyl)-2-methylpropyl)-D-prolinamide] | 0.5053 µM
17 | Cc1cc(C(=O)N2[C@@H](C(=O)N[C@@H](c3ccc(C(F)(F)F)cc3F)C3CC3)C[C@H]3C[C@H]32)c(NC2CCC2)cn1 [Example 230, (1R,3R,5R)-2-((5-(cyclobutylamino)-2-methyl-4-pyridinyl)carbonyl)-N-((R)-cyclopropyl(2-fluoro-4-(trifluoromethyl)phenyl)methyl)-2-azabicyclo[3.1.0]hexane-3-carboxamide] | 0.5074 µM
18 | O=C(N[C@@H](c1cc(F)c(Cl)cc1F)C1CC1)[C@H]1C[C@H]2C[C@H]2N1C(=O)c1ccnc(C(F)(F)F)c1 [Example 231, (1R,3R,5R)-N-((R)-(4-chloro-2,5-difluorophenyl)(cyclopropyl)methyl)-2-((2-(trifluoromethyl)-4-pyridinyl)carbonyl)-2-azabicyclo[3.1.0]hexane-3-carboxamide] | 0.5188 µM
19 | CS(=O)(=O)c1cccc(C(=O)N2CCC[C@@H]2C(=O)N[C@@H](c2ccc(C(F)(F)F)cc2F)C2COC2)c1 [Example 232, N-((R)-(2-fluoro-4-(trifluoromethyl)phenyl)(3-oxetanyl)methyl)-1-(3-(methylsulfonyl)benzoyl)-D-prolinamide] | 0.5201 µM
20 | O=C(N[C@@H](c1cc(F)c(Cl)cc1F)C1COC1)[C@H]1C[C@H]2C[C@H]2N1C(=O)c1cc(C(F)(F)F)ccn1 [Example 233, (1R,3R,5R)-N-((R)-(4-chloro-2,5-difluorophenyl)(3-oxetanyl)methyl)-2-((4-(trifluoromethyl)-2-pyridinyl)carbonyl)-2-azabicyclo[3.1.0]hexane-3-carboxamide] | 0.5241 µM
21 | CC1(C)CN(S(=O)(=O)c2cccc(C(=O)N3CCC[C@@H]3C(=O)NCc3ccc(C(F)(F)F)cc3)c2)C1 [Example 234, 1-((3-((3,3-dimethyl-1-azetidinyl)sulfonyl)phenyl)carbonyl)-N-(4-(trifluoromethyl)benzyl)-D-prolinamide] | 0.5321 µM
22 | CS(=O)(=O)c1cncc(C(=O)N2CC[C@H](C(F)(F)F)[C@H]2C(=O)N[C@@H](c2cc(F)c(C(F)(F)F)cc2F)C2CC2)c1 [Example 236, (3S)-N-((R)-cyclopropyl(2,5-difluoro-4-(trifluoromethyl)phenyl)methyl)-1-((5-(methylsulfonyl)-3-pyridinyl)carbonyl)-3-(trifluoromethyl)-L-prolinamide] | 0.5579 µM
23 | O=C(NCc1ccc(C(F)(F)F)cc1F)[C@H]1CCCN1C(=O)[C@H]1CCCN(S(=O)(=O)N2CC(OCCF)C2)C1 [Example 237, 1-(((3S)-1-((3-(2-fluoroethoxy)-1-azetidinyl)sulfonyl)-3-piperidinyl)carbonyl)-N-(2-fluoro-4-(trifluoromethyl)benzyl)-D-prolinamide] | 0.5593 µM
24 | O=C(NCc1ccc(Cl)c(F)c1)[C@H]1CCCN1C(=O)c1cccc(S(=O)(=O)N2CC(F)(F)C2)c1 [Example 238, N-(4-chloro-3-fluorobenzyl)-1-(3-((3,3-difluoro-1-azetidinyl)sulfonyl)benzoyl)-D-prolinamide] | 0.5606 µM
25 | N#CC1CN(S(=O)(=O)N2CCN[C@H](C(=O)N3CCC[C@@H]3C(=O)NCc3ccc(C(F)(F)F)cc3)C2)C1 [Example 239, 1-(((2S)-4-((3-cyano-1-azetidinyl)sulfonyl)-2-piperazinyl)carbonyl)-N-(4-(trifluoromethyl)benzyl)-D-prolinamide] | 0.5676 µM
26 | N#CC1CN(S(=O)(=O)N2CCC[C@H](C(=O)N3C[C@H](O)C[C@@H]3C(=O)NCc3ccc(C(F)(F)F)cc3)C2)C1 [Example 240, (2R,4R)-1-((S)-1-((3-cyanoazetidin-1-yl)sulfonyl)piperidine-3-carbonyl)-4-hydroxy-N-(4-(trifluoromethyl)benzyl)pyrrolidine-2-carboxamide] | 0.5685 µM
